Legend:
total Ca2+ currents = assay: Whole-cell patch-clamp, total Ca2+ currents in small-to-medium DRG neurons; assay type: cell-based, rat; details: 20 μM overnight
Procedure: (§1) Recordings were obtained from acutely dissociated DRG neurons as described earlier (Bellampalli et al., 2019). Patch-clamp recordings were performed at room temperature (22-24° C.). Currents were recorded using an EPC 10 Amplifier-HEKA (HEKA Elektronik, Ludwigshafen, Germany) linked to a computer with Patchmaster software. DRG neurons were incubated overnight (˜16-24 hours) with 20 μM of CBD3063.
(§2) For total calcium current (ICa^2+) recordings, the external solution consisted of the following (in mM): 110 N-methyl-D-glucamine, 10 BaCl2, 30 TEA-Cl, 10 HEPES, 10 glucose, and 0.001 TTX (pH 7.29 adjusted with TEA-OH, and mOsm/L=310). Patch pipettes were filled with an internal solution containing (in mM): 150 CsCl2, 10 HEPES, 5 Mg-ATP, and 5 BAPTA, (pH 7.2 adjusted with CsOH, and mOsm/L-305). Peak Ca^2+ current was acquired by applying 200-millisecond voltage steps from −70 to +60 mV in 10-mV increments from a holding potential of −90 mV to obtain the current-voltage (I-V) relation. To measure the different subtypes of Ca^2+ channels, DRGs were treated with a Cav inhibitor cocktail omitting the inhibitor specific to the subtype being tested (e.g., to measure Cav2.2 currents, ω-conotoxin GVIA is omitted): Nifedipine (10 μM, L-type), ω-Conotoxin-GVIA (500 nM, […]) (Feng, et al., 2001), SNX482 (200 nM, R-type) (Newcomb et al., 1998), ω-agatoxin (200 nM, P/Q-type) (Mintz et al., 1992), TTA-P2 (1 μM, T-type) (Choe et al., 2011).
(§3) Normalization of currents to each cell's capacitance (pF) was performed to allow for collection of current density data. For I-V curves, functions were fitted to data using a non-linear least squares analysis. I-V curves were fitted using double Boltzmann functions:
(§4) where x is the pre-pulse potential, V1/2 is the mid-point potential, and k is the corresponding slope factor for single Boltzmann functions. Double Boltzmann fits were used to describe the shape of the curve, not to imply the existence of separate channel populations. Numbers 1 and 2 simply indicate first and second mid-points; a along with g are fitting parameters.
(§5) Activation curves were obtained from the I-V curves by dividing the peak current at each depolarizing step by the driving force according to the equation: G=I/(Vmem-Erev), where I is the peak current, Vmem is the membrane potential and Erev is the reversal potential. The conductance (G) was normalized against the maximum conductance (Gmax). For total and the different subtypes of Ca^2+ currents, steady-state inactivation (SSI) curves were obtained by applying an H-infinity protocol that consisted of 1.5-seconds conditioning pre-pulses from −100 to +30 mV in 10-mV increments followed by a 20-millisecond test pulse to +10 mV. For Na^+ currents, SSI curves were obtained by applying an H-infinity protocol that consisted of 1-second conditioning pre-pulses from −120 to +10 mV in 10-mV increments followed by a 200-millisecond test pulse to +10 mV. Inactivation curves were obtained by dividing the peak current recorded at the test pulse by the maximum current (Imax). Activation and SSI curves were fitted with the Boltzmann equation.

[1] = target: T1, Cav2.3 (R-type) calcium channels (Rattus norvegicus, UniProt Q07652); assay: Whole-cell patch-clamp, isolated R-type Ca2+ currents in DRG neurons; assay type: cell-based
T1 construct: Recordings were obtained from acutely dissociated DRG neurons; endogenous in cells; host or cells: acutely dissociated rat DRG neurons
T1 sequence (Q07652 whole entry): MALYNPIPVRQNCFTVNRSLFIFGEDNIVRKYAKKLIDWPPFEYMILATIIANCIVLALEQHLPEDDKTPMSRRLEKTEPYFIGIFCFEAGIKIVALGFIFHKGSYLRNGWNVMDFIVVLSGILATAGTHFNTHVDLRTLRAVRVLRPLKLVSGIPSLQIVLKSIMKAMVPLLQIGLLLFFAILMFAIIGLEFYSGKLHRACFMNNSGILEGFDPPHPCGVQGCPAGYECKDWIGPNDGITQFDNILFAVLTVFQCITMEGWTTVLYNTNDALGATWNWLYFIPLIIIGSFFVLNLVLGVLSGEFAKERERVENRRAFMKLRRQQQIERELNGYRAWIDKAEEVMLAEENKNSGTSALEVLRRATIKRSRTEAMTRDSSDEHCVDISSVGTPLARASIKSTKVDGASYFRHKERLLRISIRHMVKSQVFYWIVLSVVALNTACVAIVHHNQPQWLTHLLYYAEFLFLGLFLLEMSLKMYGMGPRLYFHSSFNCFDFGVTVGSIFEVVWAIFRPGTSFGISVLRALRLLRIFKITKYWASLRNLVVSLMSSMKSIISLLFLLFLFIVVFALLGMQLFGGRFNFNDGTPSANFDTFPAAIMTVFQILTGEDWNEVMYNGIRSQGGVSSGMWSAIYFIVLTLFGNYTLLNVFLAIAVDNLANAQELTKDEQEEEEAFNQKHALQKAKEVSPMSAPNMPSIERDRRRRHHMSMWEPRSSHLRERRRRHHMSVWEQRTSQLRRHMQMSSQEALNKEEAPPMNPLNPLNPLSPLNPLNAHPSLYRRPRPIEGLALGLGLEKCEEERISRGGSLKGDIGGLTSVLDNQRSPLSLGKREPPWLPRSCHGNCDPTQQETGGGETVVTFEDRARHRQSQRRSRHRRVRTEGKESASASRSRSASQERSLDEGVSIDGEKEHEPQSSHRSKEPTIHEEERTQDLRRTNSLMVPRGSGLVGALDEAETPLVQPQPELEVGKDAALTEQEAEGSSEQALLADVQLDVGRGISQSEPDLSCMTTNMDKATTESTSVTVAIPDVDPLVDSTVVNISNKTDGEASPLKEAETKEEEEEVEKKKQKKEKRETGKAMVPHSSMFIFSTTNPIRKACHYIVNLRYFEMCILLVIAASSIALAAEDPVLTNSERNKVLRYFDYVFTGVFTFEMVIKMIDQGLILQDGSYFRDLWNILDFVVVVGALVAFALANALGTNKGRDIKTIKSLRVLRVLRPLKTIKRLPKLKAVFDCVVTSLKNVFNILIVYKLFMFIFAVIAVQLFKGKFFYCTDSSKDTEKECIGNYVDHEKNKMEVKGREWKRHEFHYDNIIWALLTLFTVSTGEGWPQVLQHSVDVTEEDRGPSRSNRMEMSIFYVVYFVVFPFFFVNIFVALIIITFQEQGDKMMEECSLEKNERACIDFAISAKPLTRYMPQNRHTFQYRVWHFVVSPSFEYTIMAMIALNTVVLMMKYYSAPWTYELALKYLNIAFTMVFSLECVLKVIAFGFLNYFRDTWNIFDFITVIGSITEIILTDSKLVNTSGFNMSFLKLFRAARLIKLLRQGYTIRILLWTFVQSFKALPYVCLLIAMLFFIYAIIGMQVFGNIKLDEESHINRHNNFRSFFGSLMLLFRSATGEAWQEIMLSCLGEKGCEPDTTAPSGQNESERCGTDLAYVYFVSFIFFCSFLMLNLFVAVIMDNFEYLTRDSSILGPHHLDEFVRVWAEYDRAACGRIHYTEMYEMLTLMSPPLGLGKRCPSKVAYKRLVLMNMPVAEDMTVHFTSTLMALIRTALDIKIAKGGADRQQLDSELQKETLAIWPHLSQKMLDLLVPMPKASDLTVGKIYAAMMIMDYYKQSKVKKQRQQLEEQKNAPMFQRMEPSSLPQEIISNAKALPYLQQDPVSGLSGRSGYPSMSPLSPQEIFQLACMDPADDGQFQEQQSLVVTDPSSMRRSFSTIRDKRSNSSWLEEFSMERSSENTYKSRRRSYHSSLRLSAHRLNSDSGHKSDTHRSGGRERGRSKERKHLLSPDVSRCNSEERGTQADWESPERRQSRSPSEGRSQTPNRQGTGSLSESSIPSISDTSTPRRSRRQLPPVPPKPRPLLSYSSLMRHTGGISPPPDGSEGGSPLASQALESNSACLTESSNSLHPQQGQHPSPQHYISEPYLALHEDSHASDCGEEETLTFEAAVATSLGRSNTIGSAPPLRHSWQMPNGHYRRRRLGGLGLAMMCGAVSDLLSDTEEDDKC
T1 sequence (P54290 25-1091 partner): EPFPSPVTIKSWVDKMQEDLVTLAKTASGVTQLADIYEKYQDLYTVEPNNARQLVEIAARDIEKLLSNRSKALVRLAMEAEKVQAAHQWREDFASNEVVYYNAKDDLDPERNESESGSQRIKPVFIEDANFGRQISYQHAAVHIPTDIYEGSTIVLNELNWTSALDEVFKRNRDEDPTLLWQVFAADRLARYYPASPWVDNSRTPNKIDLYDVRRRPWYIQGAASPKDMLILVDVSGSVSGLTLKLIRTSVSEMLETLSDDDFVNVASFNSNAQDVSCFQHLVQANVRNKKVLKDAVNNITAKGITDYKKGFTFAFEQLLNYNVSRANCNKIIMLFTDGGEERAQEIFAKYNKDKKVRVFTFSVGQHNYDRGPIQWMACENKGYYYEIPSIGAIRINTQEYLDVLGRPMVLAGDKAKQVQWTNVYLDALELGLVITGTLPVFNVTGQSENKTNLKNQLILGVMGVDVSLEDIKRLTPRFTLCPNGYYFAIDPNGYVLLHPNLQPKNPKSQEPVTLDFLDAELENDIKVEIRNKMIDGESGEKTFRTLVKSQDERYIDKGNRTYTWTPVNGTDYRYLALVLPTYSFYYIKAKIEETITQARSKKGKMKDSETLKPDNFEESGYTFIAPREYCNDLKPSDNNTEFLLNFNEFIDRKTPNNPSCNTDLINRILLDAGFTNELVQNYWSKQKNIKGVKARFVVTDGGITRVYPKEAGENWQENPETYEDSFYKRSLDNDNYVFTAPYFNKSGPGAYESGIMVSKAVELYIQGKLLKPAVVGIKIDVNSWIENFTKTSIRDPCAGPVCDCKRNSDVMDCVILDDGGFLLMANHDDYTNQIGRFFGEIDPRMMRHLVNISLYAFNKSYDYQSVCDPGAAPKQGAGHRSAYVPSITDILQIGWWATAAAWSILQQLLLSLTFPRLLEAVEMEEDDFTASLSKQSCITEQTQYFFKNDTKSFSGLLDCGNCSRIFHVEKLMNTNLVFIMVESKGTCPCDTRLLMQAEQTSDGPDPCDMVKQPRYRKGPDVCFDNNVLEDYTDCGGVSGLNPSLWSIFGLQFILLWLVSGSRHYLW
T1 sequence (P54287 whole entry partner): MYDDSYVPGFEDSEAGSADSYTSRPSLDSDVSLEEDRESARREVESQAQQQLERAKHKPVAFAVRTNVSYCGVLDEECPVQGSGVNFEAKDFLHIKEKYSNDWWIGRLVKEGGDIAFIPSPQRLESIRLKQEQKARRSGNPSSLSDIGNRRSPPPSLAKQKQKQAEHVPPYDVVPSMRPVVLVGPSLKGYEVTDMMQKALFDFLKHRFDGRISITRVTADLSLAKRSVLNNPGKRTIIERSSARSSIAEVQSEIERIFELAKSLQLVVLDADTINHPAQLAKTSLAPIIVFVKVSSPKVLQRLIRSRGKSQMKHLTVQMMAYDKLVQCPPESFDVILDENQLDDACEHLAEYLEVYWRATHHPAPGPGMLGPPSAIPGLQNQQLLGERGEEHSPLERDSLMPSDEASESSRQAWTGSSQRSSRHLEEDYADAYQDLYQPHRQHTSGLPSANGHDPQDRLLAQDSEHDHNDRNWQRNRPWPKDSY
Procedure: as §1, §2, §3, §4, §5

[2] = system: Cav1 (L-type) calcium channels; assay: Whole-cell patch-clamp, isolated L-type Ca2+ currents in DRG neurons; assay type: cell-based, rat
Procedure: as §1, §2, §3, §4, §5

[3] = system: voltage-gated potassium channels; assay: Whole-cell patch-clamp, total potassium currents in DRG neurons; assay type: cell-based, rat; details: 20 μM (DMSO: 420.9±54.19)
Procedure: as §1
To isolate potassium currents (IK+), DRG neurons were bathed in external solution composed of (in millimolar): 140 N-methyl-glucamine chloride, 5 KCl, 1 MgCl2, 2 CaCl2, 10 D-glucose, and 10 HEPES (pH adjusted to 7.3 with KOH and mOsm/L=313). Recording pipettes were filled with internal solution containing (in mM): 140 KCl, 2.5 MgCl2, 4 Mg-ATP, 0.3 Na-GTP, 2.5 CaCl2), 5 EGTA, and 10 HEPES (pH adjusted to 7.3 with KOH and mOsm/L=320). From a holding potential of −60 mV, IK activation was determined by applying 300-millisecond voltage steps from −80 to +60 mV in 10-mV increments.
Normalization of currents to each cell's capacitance (pF) was performed to allow for collection of current density data. For I-V curves, functions were fitted to data using a non-linear least squares analysis. I-V curves were fitted using double Boltzmann functions: […]

[4] = target: T2, Cav2.1 (P/Q-type) calcium channels (Rattus norvegicus, UniProt P54282); assay: Whole-cell patch-clamp, isolated P/Q-type Ca2+ currents in DRG neurons; assay type: cell-based
T2 construct: Recordings were obtained from acutely dissociated DRG neurons; endogenous in cells; host or cells: acutely dissociated rat DRG neurons
Procedure: as §1, §2, §3, §4, §5

rat DRG sensory neurons = assay: Whole-cell current-clamp, excitability of DRG sensory neurons; assay type: cell-based; set-up: rheobase: unit not given here
Procedure: Cav2.2 channels have critical roles in controlling the excitability of DRG neurons, according to earlier studies (Yang et al., 2018). Since Cav2.2 populations are affected by CBD3063, the ability of CBD3063 to alter the excitability of DRG sensory neurons was investigated (FIGS. 7A-D). Action potentials (AP) were elicited in rat sensory neurons during whole cell current-clamp tests in response to current injections from 0-120 pA after overnight incubation with 0.1% DMSO or 20 μM CBD3063.

[5] = 20 μM overnight, mean ± SEM (n cells)

effect on Ca2+ influx through Cav2.3 (R-type) channels (current density-voltage curve, peak current density) ([1]; 20 μM overnight vs 0.1% DMSO): does not alter
R-type Ca2+ currents, activation V1/2 [1, 5]: −4.098 ± 0.693 (11) mV
R-type Ca2+ currents, activation k (slope factor) [1, 5]: 7.244 ± 0.579 (11)
R-type Ca2+ currents, inactivation V1/2 [1, 5]: −16.840 ± 2.186 (11) mV
R-type Ca2+ currents, inactivation k (slope factor) [1, 5]: −11.870 ± 1.850 (11)
effect on Ca2+ influx through Cav2.1 (P/Q-type) channels (current density-voltage curve, peak current density) ([4]; 20 μM overnight vs 0.1% DMSO): does not alter
P/Q-type Ca2+ currents, activation V1/2 [4, 5]: −3.265 ± 0.824 (7) mV
P/Q-type Ca2+ currents, activation k (slope factor) [4, 5]: 4.186 ± 0.663 (7)
P/Q-type Ca2+ currents, inactivation V1/2 [4, 5]: −18.667 ± 1.688 (7) mV
P/Q-type Ca2+ currents, inactivation k (slope factor) [4, 5]: −9.396 ± 1.470 (7)
SMILES: CC(=O)N[C@@H]1CCCN(C(=O)NCCCNc2ccccn2)C1 [CBD3063, (3R)-3-acetamido-N-[3-(pyridin-2-ylamino)propyl]piperidine-1-carboxamide]
peak total calcium current density (total Ca2+ currents; +10 mV (DMSO: −93.23±10.40)): −49.84±6.17 pA/pF
reduction in Ca2+ currents at peak current density (total Ca2+ currents; +10 mV, vs 0.1% DMSO): ~46.54%
Total Ca2+ currents, activation V1/2 (total Ca2+ currents; mean ± SEM (n cells)): 0.971 ± 2.338 (16) mV
Total Ca2+ currents, activation k (slope factor) (total Ca2+ currents; mean ± SEM (n cells)): 11.004 ± 2.181 (16)
Total Ca2+ currents, inactivation V1/2 (total Ca2+ currents; mean ± SEM (n cells)): −20.944 ± 3.182 (16) mV
Total Ca2+ currents, inactivation k (slope factor) (total Ca2+ currents; mean ± SEM (n cells)): −14.132 ± 2.880 (16)
normalized peak total ICa2+ density (total Ca2+ currents; normalized to 0.1% DMSO control (1.00±0.06)): 0.51±0.04 ratio to DMSO control
effect on Ca2+ influx through Cav1 (L-type) channels (current density-voltage curve, peak current density) ([2]; 20 μM overnight vs 0.1% DMSO): does not alter
L-type Ca2+ currents, activation V1/2 [2, 5]: −2.704 ± 0.710 (7) mV
L-type Ca2+ currents, activation k (slope factor) [2, 5]: 5.528 ± 0.615 (7)
L-type Ca2+ currents, inactivation V1/2 [2, 5]: −10.128 ± 2.133 (7) mV
L-type Ca2+ currents, inactivation k (slope factor) [2, 5]: −4.961 ± 1.976 (7)
peak potassium current density [3]: 422.1±52.70 pA/pF
rheobase (rat DRG sensory neurons; 20 μM overnight (DMSO: 15.00±3.416)): 48.33±9.098
resting membrane potential (rat DRG sensory neurons; 20 μM overnight (DMSO: −44.50±1.478)): −50.00±1.915 mV
number of evoked action potentials (rat DRG sensory neurons; 20 μM overnight, current injection steps 10 to 120 pA): reduced the number of evoked APs

From patent publication US20250017940A1, “SELECTIVE PEPTIDOMIMETIC MODULATORS OF CAV2.2 (N-TYPE) VOLTAGE-GATED CALCIUM CHANNELS AND USES THEREOF” (New York University, priority 2023, published 2025)
